Results from ChEMBL document CHEMBL1201862, “PubChem BioAssay data set” (2004).
The source made the active and inactive calls.

Legend:
Mu-type opioid receptor = Mu-type opioid receptor (Homo sapiens, UniProt P35372); type: functional, cell-based;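 note: U2OS cells with beta-arrestin recruitment to OPRM1 by beta-gal complementation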
[1] = target: 5-hydroxytryptamine receptor 2A (Mus musculus, UniProt P35363); type: functional, cell-based;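 note: CHO-K1 cells with tagged receptor and beta-arrestin; agonist potency measured as compound-induced activation of the receptor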
Nonstructural protein 1 = Nonstructural protein 1 (Influenza A virus, UniProt Q194T2); type: functional, Influenza A virus (A/California/07/2009(H1N1))
[2] = HEK-293T viability loss after treatment – luminescence, T-cell screen hits, cytotoxicity control for TCR NF-kB inhibitor project, dose response (AID 489026); type: functional, cell-based;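 note: cells exposed to compound about 14 hours before the viability readout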
[3] = loss of viability in HepG2 cells – cell-based, CellTiter-Glo, cherry-picked, cytotoxicity control for Shn3 inhibitor project, dose response (AID 624134); type: functional
[4] = non-specific 3'UTR reporter inhibition in Clone20-Shn3RL – cell-based, Renilla luciferase, cherry-picked, counter-screen for Shn3 inhibitor project, dose response (AID 624133); type: functional
[5] = reduction of Shn3 3'UTR-driven luciferase in osteoblasts – cell-based, Clone20 osteoblasts, firefly luciferase, cherry-picked, dose response (AID 624132); type: functional;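 note: firefly luciferase luminescence from reporter carrying the Shn3 3'UTR in osteoblasts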
[6] = target: T1, Voltage-gated N-type calcium channel alpha-1B subunit/Amyloid beta A4 precursor protein-binding family A member 1 (Homo sapiens, UniProt Q00975+Q02410); type: protein assay
[7] = target: T1, Voltage-gated N-type calcium channel alpha-1B subunit/Amyloid beta A4 precursor protein-binding family A member 1; type: protein assay; remark: listed apart in the source
[8] = target: Heat shock protein HSP 90-alpha (Homo sapiens, UniProt P07900); type: functional, organism-based
[9] = toxicity to human hepatoma HepG2 cells – cell-based, cherry-picked samples, cytotoxicity control, dose response (AID 1159577); type: functional
[10] = P. falciparum Dd2 growth inhibitors, dose response, SYBR Green, cherry-picked samples (AID 1159567); type: functional, cell-based
[11] = luciferase reporter signal suppression in cells – H4 neuroglioma cells, luminescence, dose response (AID 1990); type: functional, cell-based
[12] = Luminescence Cell-Based Dose Response HTS to Identify Inhibitors of 5'UTR Stem-Loop Driven Prion Protein mRNA Translation in H4 Neuroglioblastoma Cells. [Related pubchem assays: 1827 (Project Summary), 1813 (Primary HTS)]; type: functional
[13] = alpha-synuclein stem-loop luciferase translation blockers – H4 neuroglioma cells, luminescence, confirmation (AID 1988); type: functional, cell-based
Aminopeptidase N = target: T2, Aminopeptidase N (Plasmodium falciparum FcB1/Columbia, UniProt O96935); experiment: malaria alanyl aminopeptidase activity blockers – biochemical, fluorogenic H-Leu-NHMec substrate, 1536-well (AID 1445); design: species or system Plasmodium falciparum 3D7, 3D7
T2 sequence (O96935 whole entry): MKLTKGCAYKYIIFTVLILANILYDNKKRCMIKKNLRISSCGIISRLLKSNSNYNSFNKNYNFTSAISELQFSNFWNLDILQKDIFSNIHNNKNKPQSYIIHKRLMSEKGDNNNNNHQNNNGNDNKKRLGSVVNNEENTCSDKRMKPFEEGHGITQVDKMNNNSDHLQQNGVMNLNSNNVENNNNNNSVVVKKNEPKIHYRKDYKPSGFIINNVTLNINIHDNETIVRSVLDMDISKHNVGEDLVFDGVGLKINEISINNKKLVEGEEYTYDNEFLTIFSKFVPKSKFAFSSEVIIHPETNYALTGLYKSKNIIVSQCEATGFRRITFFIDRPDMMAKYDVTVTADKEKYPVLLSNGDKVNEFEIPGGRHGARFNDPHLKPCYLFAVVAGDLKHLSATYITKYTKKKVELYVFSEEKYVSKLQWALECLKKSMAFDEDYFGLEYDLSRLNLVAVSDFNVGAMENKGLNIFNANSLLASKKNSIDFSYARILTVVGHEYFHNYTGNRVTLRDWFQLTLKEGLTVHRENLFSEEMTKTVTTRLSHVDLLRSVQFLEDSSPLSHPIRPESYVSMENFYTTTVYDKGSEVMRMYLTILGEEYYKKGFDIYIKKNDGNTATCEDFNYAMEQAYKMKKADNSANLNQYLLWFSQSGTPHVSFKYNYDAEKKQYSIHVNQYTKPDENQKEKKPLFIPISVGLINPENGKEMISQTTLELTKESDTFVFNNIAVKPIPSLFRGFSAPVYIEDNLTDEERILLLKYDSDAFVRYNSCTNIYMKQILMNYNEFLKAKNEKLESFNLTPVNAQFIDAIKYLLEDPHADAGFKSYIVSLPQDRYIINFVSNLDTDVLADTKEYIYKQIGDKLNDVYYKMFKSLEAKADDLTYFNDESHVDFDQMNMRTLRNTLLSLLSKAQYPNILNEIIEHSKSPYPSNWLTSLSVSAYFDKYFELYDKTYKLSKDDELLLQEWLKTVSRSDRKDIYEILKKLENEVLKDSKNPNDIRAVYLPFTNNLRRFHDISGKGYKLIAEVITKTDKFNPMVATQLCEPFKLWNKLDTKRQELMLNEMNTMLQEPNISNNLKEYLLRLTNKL

[14] = Luminescence Cell-Based Dose Retest to Confirm Inhibitors of Cancer Stem Cells. [Related pubchem assays (depositor defined):AID2717, AID2721]; type: functional, Homo sapiens; conditions: Homo sapiens
INS1 = experiment: INS-1E survival protection against cytokine death – cell-based, luminescence, retest, dose response (AID 449756); type: functional; conditions: Rattus norvegicus;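 note: cell death triggered by IL-1 beta plus TNF-alpha plus IFN-gamma mixture; protective hits raise ATP signal compared with cytokine alone wells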
Estrogen receptor beta = Estrogen receptor beta (Homo sapiens, UniProt Q92731); experiment: blockers of SRC-3 recruitment to ERβ – biochemical, ELISA, streptavidin-HRP readout, orthogonal assay, confirmation (AID 1060)
[15] = target: T3, Microphthalmia-associated transcription factor (Homo sapiens, UniProt O75030); experiment: reducers of TRPM1 reporter luminescence, concentration series – cell-based, SK-MEL-5, cherry-picked, set 3, MITF inhibitor project, dose response (AID 493073); type: functional;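 note: SK-MEL-5 melanoma cells with luciferase driven by the MITF target TRPM1 promoter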
T3 sequence (O75030 whole entry): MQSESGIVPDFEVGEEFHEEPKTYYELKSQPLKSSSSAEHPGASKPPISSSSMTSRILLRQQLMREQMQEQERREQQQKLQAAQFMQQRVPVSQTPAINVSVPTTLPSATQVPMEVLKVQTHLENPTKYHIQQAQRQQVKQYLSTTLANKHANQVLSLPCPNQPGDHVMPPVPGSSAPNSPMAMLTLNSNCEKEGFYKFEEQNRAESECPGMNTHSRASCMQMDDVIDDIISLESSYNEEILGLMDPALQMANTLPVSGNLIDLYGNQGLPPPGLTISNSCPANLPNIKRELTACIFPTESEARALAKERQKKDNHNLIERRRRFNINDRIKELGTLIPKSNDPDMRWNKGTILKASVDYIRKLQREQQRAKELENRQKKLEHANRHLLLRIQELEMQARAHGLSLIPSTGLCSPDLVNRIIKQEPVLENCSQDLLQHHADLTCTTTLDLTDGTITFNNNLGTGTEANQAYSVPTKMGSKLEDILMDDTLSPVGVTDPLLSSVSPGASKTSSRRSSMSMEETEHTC

[16] = blockade of melanocortin 4 receptor signaling – cell-based, plate reader, cherry pick, counter-screen for LGR2 antagonist project, dose response (AID 743444); type: functional;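 note: transfected HEK 293 cells stimulated with alpha-MSH peptide; potency of inhibitors of the alpha-MSH evoked signal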
[17] = viability loss in HEK293 cells – cell-based, plate reader, cherry-picked samples, cytotoxicity control, dose response (AID 743446); type: functional
[18] = target: T4, Small ubiquitin-related modifier 1 (Homo sapiens, UniProt P63165); experiment: SUMO1 protein interaction blockers, potency – biochemical, fluorescence polarization, uHTS hits, dose response (AID 624382); type: functional; conditions: read-out: IC50_Mean
[19] = target: T4, Small ubiquitin-related modifier 1; experiment: SUMO1 protein-protein binding blockers, potency – biochemical, FRET, dose response (AID 624383); type: functional; conditions: read-out: IC50_Mean
[20] = target: T5, Carboxy-terminal domain RNA polymerase II polypeptide A small phosphatase 1 (Homo sapiens, UniProt Q9GZU7); experiment: CTDSP1 inhibitors, concentration-response, biochemical, absorbance readout, ultra-high-throughput screen actives (AID 540297); type: functional
T5 sequence (Q9GZU7 whole entry): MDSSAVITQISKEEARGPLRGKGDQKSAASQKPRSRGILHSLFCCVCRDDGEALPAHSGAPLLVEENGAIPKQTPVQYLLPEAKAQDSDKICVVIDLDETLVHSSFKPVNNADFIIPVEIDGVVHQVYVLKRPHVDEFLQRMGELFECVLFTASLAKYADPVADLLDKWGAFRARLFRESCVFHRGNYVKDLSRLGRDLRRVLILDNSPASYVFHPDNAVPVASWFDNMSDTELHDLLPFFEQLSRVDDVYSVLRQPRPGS

[21] = viability of HCT116 lacking mutant beta-catenin – cell-based, human colon tumor, dose response (AID 1045); type: functional;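 note: HCT116 colon tumor cells with beta catenin knocked out; cells exposed to compound for 60 hours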
[22] = viability of PTEN-deleted HCT116 cells – cell-based, HCT116 PTEN knockout, dose response (AID 1047); type: functional;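 note: HCT116 colon tumor cells with PTEN knocked out; cells exposed to compound for 60 hours before readout; potency for loss of cell viability measured by luminescence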
Vero = experiment: mammalian cell viability reduction – secondary assay, cytotoxicity control for West Nile virus antiviral project, dose response (AID 1650); type: functional, Chlorocebus sabaeus; conditions: Chlorocebus sabaeus, Vero
[23] = target: Induced myeloid leukemia cell differentiation protein Mcl-1 (Homo sapiens, UniProt Q07820); type: functional
SUMO-activating enzyme [24] = target: T6, SUMO-activating enzyme (Homo sapiens, UniProt Q9UBT2); experiment: blockers of SAE1/SAE2–UBC9 SUMO transfer – biochemical, HTRF, uHTS, primary screen (AID 2006); type: protein-complex assay
SUMO-activating enzyme [25] = target: T6, SUMO-activating enzyme; experiment: blockers of UBC9-mediated SUMO conjugation – biochemical, AlphaScreen, SUMOylation inhibitor project, confirmation (AID 2018); type: functional
[26] = blockers of bursicon-stimulated LGR2 cAMP reporter – cell-based, HEK293, CRE-luciferase reporter, cherry pick, set 2, dose response (AID 743343); type: functional;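 note: transfected cells were stimulated with diluted bursicon conditioned medium after compound addition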

Nonstructural protein 1, sequence (Q194T2 whole entry): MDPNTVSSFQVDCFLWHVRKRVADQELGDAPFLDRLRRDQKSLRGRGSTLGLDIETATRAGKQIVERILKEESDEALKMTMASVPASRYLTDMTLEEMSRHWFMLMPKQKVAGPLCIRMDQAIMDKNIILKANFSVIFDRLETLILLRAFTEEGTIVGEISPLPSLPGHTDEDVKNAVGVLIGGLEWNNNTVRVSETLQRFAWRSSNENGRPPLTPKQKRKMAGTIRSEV
5-hydroxytryptamine receptor 2A, sequence (P35363 whole entry): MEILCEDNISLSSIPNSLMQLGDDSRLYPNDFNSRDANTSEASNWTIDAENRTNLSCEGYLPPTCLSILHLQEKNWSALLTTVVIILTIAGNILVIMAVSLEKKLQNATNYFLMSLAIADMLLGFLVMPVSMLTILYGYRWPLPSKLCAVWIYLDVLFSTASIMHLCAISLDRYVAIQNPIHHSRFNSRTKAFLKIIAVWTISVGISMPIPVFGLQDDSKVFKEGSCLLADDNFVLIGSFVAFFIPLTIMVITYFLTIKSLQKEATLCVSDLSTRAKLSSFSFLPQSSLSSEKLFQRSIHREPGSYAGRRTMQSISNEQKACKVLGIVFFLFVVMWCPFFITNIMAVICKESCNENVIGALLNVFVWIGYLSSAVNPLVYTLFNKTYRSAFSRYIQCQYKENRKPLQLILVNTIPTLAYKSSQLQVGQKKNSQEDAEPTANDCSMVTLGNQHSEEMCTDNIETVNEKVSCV
Mu-type opioid receptor, sequence (P35372 whole entry): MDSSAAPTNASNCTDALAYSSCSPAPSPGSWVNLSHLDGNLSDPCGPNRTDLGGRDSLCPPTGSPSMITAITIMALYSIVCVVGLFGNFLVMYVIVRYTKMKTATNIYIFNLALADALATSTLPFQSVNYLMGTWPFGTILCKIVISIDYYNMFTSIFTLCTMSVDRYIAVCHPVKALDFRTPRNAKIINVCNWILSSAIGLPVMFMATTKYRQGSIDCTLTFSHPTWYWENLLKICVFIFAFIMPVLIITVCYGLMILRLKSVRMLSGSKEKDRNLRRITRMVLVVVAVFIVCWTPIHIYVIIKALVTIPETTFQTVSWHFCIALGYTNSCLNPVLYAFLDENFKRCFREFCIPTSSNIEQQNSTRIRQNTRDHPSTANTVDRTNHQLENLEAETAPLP
T1 sequence (Q00975 whole entry): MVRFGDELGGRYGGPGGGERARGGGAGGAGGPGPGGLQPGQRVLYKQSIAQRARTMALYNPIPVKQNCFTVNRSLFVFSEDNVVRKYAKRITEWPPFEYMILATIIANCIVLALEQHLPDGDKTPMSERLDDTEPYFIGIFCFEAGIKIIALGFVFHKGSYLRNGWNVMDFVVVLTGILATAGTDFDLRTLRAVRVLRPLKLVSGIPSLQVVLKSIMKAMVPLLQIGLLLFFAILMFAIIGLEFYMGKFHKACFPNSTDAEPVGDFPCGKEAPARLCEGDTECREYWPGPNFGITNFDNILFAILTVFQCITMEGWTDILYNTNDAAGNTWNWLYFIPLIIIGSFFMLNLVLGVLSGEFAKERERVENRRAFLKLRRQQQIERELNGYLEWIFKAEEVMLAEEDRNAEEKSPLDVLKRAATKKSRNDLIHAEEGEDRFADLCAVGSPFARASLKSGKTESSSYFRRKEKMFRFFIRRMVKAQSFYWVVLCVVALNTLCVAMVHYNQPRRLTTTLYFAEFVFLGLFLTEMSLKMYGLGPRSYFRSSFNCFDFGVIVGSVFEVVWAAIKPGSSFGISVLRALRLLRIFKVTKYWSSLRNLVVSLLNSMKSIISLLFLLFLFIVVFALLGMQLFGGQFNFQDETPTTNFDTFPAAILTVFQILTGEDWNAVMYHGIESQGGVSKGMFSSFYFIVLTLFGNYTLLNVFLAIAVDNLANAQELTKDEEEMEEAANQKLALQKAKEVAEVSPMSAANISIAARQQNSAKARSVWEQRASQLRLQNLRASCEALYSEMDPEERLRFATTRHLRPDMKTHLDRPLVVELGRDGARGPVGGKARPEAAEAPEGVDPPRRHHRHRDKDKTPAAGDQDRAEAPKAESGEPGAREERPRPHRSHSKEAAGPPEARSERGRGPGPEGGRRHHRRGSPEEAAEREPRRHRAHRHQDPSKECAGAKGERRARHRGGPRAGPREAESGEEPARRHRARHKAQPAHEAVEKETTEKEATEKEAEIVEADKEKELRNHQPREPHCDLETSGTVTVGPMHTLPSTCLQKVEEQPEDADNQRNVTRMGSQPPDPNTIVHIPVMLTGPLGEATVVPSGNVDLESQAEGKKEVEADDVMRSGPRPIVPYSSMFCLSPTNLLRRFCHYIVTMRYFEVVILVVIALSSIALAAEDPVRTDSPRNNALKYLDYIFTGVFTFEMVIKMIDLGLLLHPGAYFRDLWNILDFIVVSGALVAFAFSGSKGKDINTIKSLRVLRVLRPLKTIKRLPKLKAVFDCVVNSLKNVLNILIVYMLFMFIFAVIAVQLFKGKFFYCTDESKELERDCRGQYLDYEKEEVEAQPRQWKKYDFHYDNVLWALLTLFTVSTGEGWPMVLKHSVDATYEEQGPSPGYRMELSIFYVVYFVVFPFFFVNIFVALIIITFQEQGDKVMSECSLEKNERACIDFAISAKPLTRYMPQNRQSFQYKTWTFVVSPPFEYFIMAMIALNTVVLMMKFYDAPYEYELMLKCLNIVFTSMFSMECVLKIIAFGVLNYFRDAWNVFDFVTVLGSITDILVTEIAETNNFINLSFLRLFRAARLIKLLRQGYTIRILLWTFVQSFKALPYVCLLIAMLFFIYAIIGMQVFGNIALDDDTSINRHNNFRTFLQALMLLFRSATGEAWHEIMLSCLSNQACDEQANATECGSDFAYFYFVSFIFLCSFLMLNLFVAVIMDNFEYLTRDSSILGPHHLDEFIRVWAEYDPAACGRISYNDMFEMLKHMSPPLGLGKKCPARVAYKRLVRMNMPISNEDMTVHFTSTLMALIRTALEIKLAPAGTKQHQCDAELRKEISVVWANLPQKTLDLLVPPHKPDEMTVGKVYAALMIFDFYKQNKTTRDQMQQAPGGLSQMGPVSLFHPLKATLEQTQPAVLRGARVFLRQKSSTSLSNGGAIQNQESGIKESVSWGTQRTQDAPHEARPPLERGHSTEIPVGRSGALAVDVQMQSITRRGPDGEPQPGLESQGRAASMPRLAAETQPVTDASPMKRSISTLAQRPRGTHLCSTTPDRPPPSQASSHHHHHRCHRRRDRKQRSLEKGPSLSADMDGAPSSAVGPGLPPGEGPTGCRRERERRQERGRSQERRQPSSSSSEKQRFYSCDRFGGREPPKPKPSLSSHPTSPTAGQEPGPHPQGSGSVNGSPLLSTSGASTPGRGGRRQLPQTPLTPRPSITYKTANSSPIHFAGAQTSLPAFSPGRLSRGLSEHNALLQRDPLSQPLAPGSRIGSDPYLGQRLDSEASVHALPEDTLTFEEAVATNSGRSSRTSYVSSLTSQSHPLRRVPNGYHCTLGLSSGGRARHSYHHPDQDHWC
T1 sequence (Q02410 whole entry): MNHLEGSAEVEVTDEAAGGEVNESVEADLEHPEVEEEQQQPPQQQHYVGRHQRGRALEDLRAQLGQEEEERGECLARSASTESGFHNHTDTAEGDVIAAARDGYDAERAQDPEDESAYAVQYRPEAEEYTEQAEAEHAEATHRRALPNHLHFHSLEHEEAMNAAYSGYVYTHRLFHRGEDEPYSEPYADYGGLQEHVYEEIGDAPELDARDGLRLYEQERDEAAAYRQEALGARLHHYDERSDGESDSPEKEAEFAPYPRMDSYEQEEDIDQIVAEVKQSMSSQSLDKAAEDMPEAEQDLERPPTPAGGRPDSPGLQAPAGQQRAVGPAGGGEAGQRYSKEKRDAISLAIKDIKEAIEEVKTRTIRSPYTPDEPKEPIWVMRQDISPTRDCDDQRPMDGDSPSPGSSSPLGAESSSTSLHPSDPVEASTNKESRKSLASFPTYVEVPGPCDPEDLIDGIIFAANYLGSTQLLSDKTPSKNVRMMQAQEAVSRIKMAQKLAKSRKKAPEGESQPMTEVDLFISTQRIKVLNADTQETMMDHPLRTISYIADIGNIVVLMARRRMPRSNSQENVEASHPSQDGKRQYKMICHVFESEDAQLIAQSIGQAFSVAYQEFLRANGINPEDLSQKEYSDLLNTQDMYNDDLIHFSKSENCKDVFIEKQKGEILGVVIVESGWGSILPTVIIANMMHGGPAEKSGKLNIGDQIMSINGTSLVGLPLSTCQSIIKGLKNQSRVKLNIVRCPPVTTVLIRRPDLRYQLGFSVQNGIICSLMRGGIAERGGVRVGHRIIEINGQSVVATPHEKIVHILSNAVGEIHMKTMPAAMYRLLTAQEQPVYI
T4 sequence (P63165 whole entry): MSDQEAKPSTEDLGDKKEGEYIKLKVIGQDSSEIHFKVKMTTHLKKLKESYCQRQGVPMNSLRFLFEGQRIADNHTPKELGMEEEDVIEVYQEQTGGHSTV
Induced myeloid leukemia cell differentiation protein Mcl-1, sequence (Q07820 whole entry): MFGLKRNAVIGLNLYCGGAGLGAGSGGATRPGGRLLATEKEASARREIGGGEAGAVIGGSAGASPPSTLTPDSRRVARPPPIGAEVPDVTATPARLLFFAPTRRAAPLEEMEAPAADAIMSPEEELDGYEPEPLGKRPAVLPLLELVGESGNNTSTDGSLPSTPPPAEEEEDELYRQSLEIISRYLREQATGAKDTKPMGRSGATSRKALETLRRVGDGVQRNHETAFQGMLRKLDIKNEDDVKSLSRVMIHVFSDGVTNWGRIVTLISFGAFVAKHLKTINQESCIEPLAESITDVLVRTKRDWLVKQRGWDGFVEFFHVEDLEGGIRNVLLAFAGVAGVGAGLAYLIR

O=C1C2CCCN2C(=O)N1CCCCN1CCN(c2ccccc2)CC1 (configuration not stated)
EC50 (Mu-type opioid receptor): 92.4 µM (inactive)
EC50 [1]: 2.81 µM (active)

CCn1ccnc1CNCc1cn(-c2cc(C)ccc2C)nc1-c1ccccc1
IC50 (Nonstructural protein 1): 11.8 µM (active)

O=C(Nc1ccc(N2CCOCC2)cc1)c1ccc(Cl)c(S(=O)(=O)N2CCCCC2)c1
IC50 [2]: > 80 µM (inactive)
AC50 [3]: 1.18 µM (active)
AC50 [4]: 1.58 µM (active)
AC50 [5]: 0.81 µM (active)

COc1ccc(CN2CCN(C(=O)c3ccco3)CC2)cc1
EC50 (Mu-type opioid receptor): 92.5 µM (inactive)
EC50 [1]: 1.53 µM (active)

CCOC(=O)c1ccc(N2C(=O)C=CC2=O)cc1
IC50 [6]: 2.46 µM (active)
IC50 [7]: 6.05 µM (active)
AC50 [8]: 0.691 µM (active)

COc1ccc(C#Cc2ccc([C@H]3[C@@H](CO)N4CCCCN(Cc5ccncc5)C[C@H]34)cc2)cc1
AC50 [9]: 10.7 µM (active)
AC50 [10]: 1.87 µM (active)

COc1cc(-c2noc(C)c2/C=C/c2cccc([N+](=O)[O-])c2)cc(OC)c1OC
IC50 [2]: 68.5 µM (inactive)

Cc1cccc(OCC(O)CN2CCN(c3ccccn3)CC2)c1C (configuration not stated)
EC50 (Mu-type opioid receptor): 92.5 µM (inactive)
EC50 [11]: > 120 µM (not active)
EC50 [12]: > 120 µM (not active)
EC50 [1]: 25.4 µM (inactive)
EC50 [13]: > 120 µM (not active)

COc1cccc(N2CCN(C(=O)c3cn(Cc4ccccc4)nc3-c3cccnc3)CC2)c1
IC50 [2]: > 80 µM (inactive)

O=C(N/N=C(\Cc1ncc[nH]1)c1ccccc1)c1ccncc1
IC50 (Aminopeptidase N): 21.4 µM (active)
AC50 [14]: 3.42 µM (active)
IC50 (Nonstructural protein 1): 2.46 µM (active)
AC50 (INS1): 7.38 µM (active)

O=C(c1ccco1)N1CCN(Cc2ccccc2F)CC1
EC50 (Mu-type opioid receptor): 92.5 µM (inactive)
EC50 [1]: 7.48 µM (active)

O=C(c1ccc(CS(=O)(=O)c2ccccc2)o1)N1CCC2(CC1)OCCO2
IC50 (Estrogen receptor beta): 4.05 µM (not active)

O=C(Nc1ccncc1)C1CCCN(S(=O)(=O)c2cccc3cccnc23)C1 (configuration not stated)
IC50 [2]: 67.5 µM (inactive)

CC1=C(C(=O)O)N2C(=O)C(NC(=O)c3ccccc3Cl)C2SC1 (configuration not stated)
IC50 [6]: > 50 µM (inactive)
IC50 [7]: 0.749 µM (active)

O=C(Nc1nc(-c2ccccn2)cs1)c1ccc(F)c(S(=O)(=O)N2CCOCC2)c1
AC50 [3]: > 70 µM (inactive)
AC50 [4]: 0.711 µM (active)
IC50 (Nonstructural protein 1): 7.88 µM (active)
AC50 [15]: 5.7 µM (active)
AC50 [5]: 1.32 µM (active)
AC50 (INS1): 1.59 µM (active)

COc1ccc(NC(=O)CSc2nn3c(=O)c(C)nnc3s2)cc1
IC50 (Nonstructural protein 1): 8.25 µM (active)

CN(c1ccccc1)S(=O)(=O)c1cccc(NC(=O)c2cc(=O)c3ccccc3o2)c1
AC50 [16]: 38.2 µM (active)
AC50 [17]: > 52 µM (inactive)

O=C(COC(=O)c1ccc(Cl)c(S(=O)(=O)N2CCOCC2)c1)Nc1ccc2[nH]c(O)nc2c1
IC50 [18]: > 66.6 µM (inactive)
IC50 [19]: 15.8 µM (active)

O=C(O)c1cc(-c2ccco2)nn1-c1cccc(Cl)c1
IC50 [20]: 5.39 µM (active)
IC50 [18]: > 66.6 µM (inactive)
IC50 [19]: 27.1 µM (inactive)

CCN=c1ccc(Br)cc(C(=O)/C=C/c2c(Cl)cccc2Cl)c1O
EC50 [21]: 1.67 µM (active)
EC50 [22]: 1.92 µM (active)
CC50 (Vero): > 100 µM (active)
IC50 [23]: 2.32 µM (active)

COc1ccc2[nH]c3c(=O)n(CCCC(=O)NC4CCC(C)CC4)c(=S)[nH]c3c2c1 (configuration not stated)
IC50 (SUMO-activating enzyme [24]): 22.7 µM (active)
IC50 (SUMO-activating enzyme [25]): 38.1 µM (active)

Cn1cccc1C(=O)OCC(=O)Nc1ccc2c(c1)OCCO2
AC50 [16]: 14.8 µM (active)
AC50 [26]: 11.3 µM (active)

Cc1nc2sc(C(=O)OC(C)C)c(N)c2c(C)c1C
IC50 [6]: > 50 µM (inactive)
IC50 [7]: 4.25 µM (active)

COc1ccccc1C#Cc1ccc([C@@H]2[C@@H](CO)N(C(=O)C3CCCC3)[C@H]2C#N)cc1
AC50 [9]: > 39 µM (inactive)
AC50 [10]: 4.57 µM (active)
